Where two headings read alike, the source gives them in different places.
System: HEK293T cells
Format: cell-based
Details: 10 µM, HEK293T
Summary of the method: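 HEK293T and U2OS cells (DMEM) and MRC-9 fibroblasts (EMEM) exposed to compounds at 1 and 10 μM. Live-cell confocal imaging of cell shape and fluorescence before and at 12, 24 and 48 h. Normalized to 0.1% DMSO; biological duplicates with SEM.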

CC(C)C(=O)Nc1ncc(-c2cc(C(F)F)nn2-c2c(Cl)cccc2Cl)s1 [LIMKi3]
Cell count normalized to cells treated with DMSO control (0 h, biological replicate 1): 1.049 | Cell count per well (0 h, biological replicate 1): 313 | Population Fragmented Nuclei (%) (0 h, biological replicate 1): 6.13% | Population Healthy Nuclei (%) (0 h, biological replicate 1): 53.26% | Population Pyknosed Nuclei (%) (0 h, biological replicate 1): 40.61% | Population apoptotic cell (%) (0 h, biological replicate 1): 42.45% | Population cell that influence microtubule strucutre (%) (0 h, biological replicate 1): 17.27% | Population with increased mitochondrial mass (%) (0 h, biological replicate 1): 58.99% | Population with membrane disruption (%) (0 h, biological replicate 1): 0.00% | Cell count normalized to cells treated with DMSO control (0 h, biological replicate 2): 1.189 | Cell count per well (0 h, biological replicate 2): 272 | Population Fragmented Nuclei (%) (0 h, biological replicate 2): 5.14% | Population Healthy Nuclei (%) (0 h, biological replicate 2): 69.17% | Population Pyknosed Nuclei (%) (0 h, biological replicate 2): 25.69% | Population apoptotic cell (%) (0 h, biological replicate 2): 58.46% | Population cell that influence microtubule strucutre (%) (0 h, biological replicate 2): 23.43% | Population with increased mitochondrial mass (%) (0 h, biological replicate 2): 84.57% | Population with membrane disruption (%) (0 h, biological replicate 2): 0.00% | Cell count normalized to cells treated with DMSO control (12 h, biological replicate 1): 0.8125 | Cell count per well (12 h, biological replicate 1): 370 | Population Fragmented Nuclei (%) (12 h, biological replicate 1): 7.52% | Population Healthy Nuclei (%) (12 h, biological replicate 1): 78.06% | Population Pyknosed Nuclei (%) (12 h, biological replicate 1): 14.42% | Population apoptotic cell (%) (12 h, biological replicate 1): 54.35% | Population cell that influence microtubule strucutre (%) (12 h, biological replicate 1): 58.63% | Population with increased mitochondrial mass (%) (12 h, biological replicate 1): 84.34% | Population with membrane disruption (%) (12 h, biological replicate 1): 0.80% | Cell count normalized to cells treated with DMSO control (12 h, biological replicate 2): 1.053 | Cell count per well (12 h, biological replicate 2): 369 | Population Fragmented Nuclei (%) (12 h, biological replicate 2): 5.29% | Population Healthy Nuclei (%) (12 h, biological replicate 2): 71.47% | Population Pyknosed Nuclei (%) (12 h, biological replicate 2): 23.24% | Population apoptotic cell (%) (12 h, biological replicate 2): 41.77% | Population cell that influence microtubule strucutre (%) (12 h, biological replicate 2): 57.61% | Population with increased mitochondrial mass (%) (12 h, biological replicate 2): 88.89% | Population with membrane disruption (%) (12 h, biological replicate 2): 1.23% | Cell count normalized to cells treated with DMSO control (24 h, biological replicate 1): 0.6376 | Cell count per well (24 h, biological replicate 1): 387 | Population Fragmented Nuclei (%) (24 h, biological replicate 1): 7.23% | Population Healthy Nuclei (%) (24 h, biological replicate 1): 75.14% | Population Pyknosed Nuclei (%) (24 h, biological replicate 1): 17.63% | Population apoptotic cell (%) (24 h, biological replicate 1): 40.98% | Population cell that influence microtubule strucutre (%) (24 h, biological replicate 1): 62.69% | Population with increased mitochondrial mass (%) (24 h, biological replicate 1): 85.38% | Population with membrane disruption (%) (24 h, biological replicate 1): 0.38% | Cell count normalized to cells treated with DMSO control (24 h, biological replicate 2): 0.8682 | Cell count per well (24 h, biological replicate 2): 392 | Population Fragmented Nuclei (%) (24 h, biological replicate 2): 3.68% | Population Healthy Nuclei (%) (24 h, biological replicate 2): 77.34% | Population Pyknosed Nuclei (%) (24 h, biological replicate 2): 18.98% | Population apoptotic cell (%) (24 h, biological replicate 2): 47.76% | Population cell that influence microtubule strucutre (%) (24 h, biological replicate 2): 63.74% | Population with increased mitochondrial mass (%) (24 h, biological replicate 2): 83.88% | Population with membrane disruption (%) (24 h, biological replicate 2): 0.73% | Cell count normalized to cells treated with DMSO control (48 h, biological replicate 1): 0.5082 | Cell count per well (48 h, biological replicate 1): 514 | Population Fragmented Nuclei (%) (48 h, biological replicate 1): 8.84% | Population Healthy Nuclei (%) (48 h, biological replicate 1): 75.22% | Population Pyknosed Nuclei (%) (48 h, biological replicate 1): 15.95% | Population apoptotic cell (%) (48 h, biological replicate 1): 52.70% | Population cell that influence microtubule strucutre (%) (48 h, biological replicate 1): 69.63% | Population with increased mitochondrial mass (%) (48 h, biological replicate 1): 76.50% | Population with membrane disruption (%) (48 h, biological replicate 1): 0.29% | Cell count normalized to cells treated with DMSO control (48 h, biological replicate 2): 0.7148 | Cell count per well (48 h, biological replicate 2): 488 | Population Fragmented Nuclei (%) (48 h, biological replicate 2): 9.82% | Population Healthy Nuclei (%) (48 h, biological replicate 2): 75.45% | Population Pyknosed Nuclei (%) (48 h, biological replicate 2): 14.73% | Population apoptotic cell (%) (48 h, biological replicate 2): 34.85% | Population cell that influence microtubule strucutre (%) (48 h, biological replicate 2): 65.68% | Population with increased mitochondrial mass (%) (48 h, biological replicate 2): 74.26% | Population with membrane disruption (%) (48 h, biological replicate 2): 1.78%
